Literature values in US20120065267A1, “COMPOSITIONS INCLUDING 3,5-L-T2 AND METHODS OF USE THEREOF” (priority 2010, published 2012).
Read-outs that look alike come from different tables or passages of the source.

Key:
[1] = system: hypercholesterolemic patients; conditions: cited from earlier work
TR α1, β1 and β2 = conditions: in vitro; cited from earlier work

Row | SMILES | patients with coronary artery disease experiencing increased anginal symptoms ([1]; 300 mg daily for 8 months) | patients with coronary artery disease who died suddenly from presumed myocardial infarction ([1]; 300 mg daily for 8 months) | decrease in total serum cholesterol ([1]; 300 mg daily, at 20 weeks) | mean heart rate on treatment ([1]; 300 mg daily, increase from 76) | efficacy at lower doses ([1]; doses of less than 250 mg/day) | decrease in body weight ([1]; euthyroid subjects, 300 mg daily for 8 months) | decrease in body weight ([1]; hypothyroid patients, 300 mg daily for 8 months) | binding affinity relative to that of T2 (TR α1, β1 and β2)
1 | N[C@H](Cc1cc(I)c(Oc2ccc(O)cc2)c(I)c1)C(=O)O [3,5-D-T2] | 7 of 13 | 2 of the 13 | 20% | 88 beats per minute | ineffective | 5% | 8% | –
2 | N[C@@H](Cc1cc(I)c(Oc2ccc(O)c(I)c2)c(I)c1)C(=O)O [T3, (2S)-2-amino-3-[4-(4-hydroxy-3-iodophenoxy)-3,5-diiodophenyl]propanoic acid] | – | – | – | – | – | – | – | 40-500 fold
